Results as given in patent US5840721A, “Imidazole derivatives as MDR modulators” (Ontogen Corporation, priority 1997, dated 1998).
pEC50: −log10 of the molar value.

Tested on: CEM/VLB1000 cell line
Test: Cytotoxicity potentiation: enhancement of vinblastine cytotoxicity in MDR cell line (alamar blue)
Format: cell-based, human
Details: Homo sapiens, midpoint of minimum and maximum cytotoxicity induced by 3-5 μg/mL vinblastine and compound, 48 hours incubation, alamar blue 24 hours, read-out: Cytotocicity Potentiation (EC50)
Procedure: Multidrug-resistant cell lines are easily obtainable for in vitro determination of drug sensitization by compounds of the present invention. In vitro potentiation of antineoplastic cytotoxicity by the imidazole derivatives of the present invention was measured in both CEM/VLB1000 and SK/VLB1000 cell lines. The multidrug resistant cell lines were obtained from Dr. Victor Ling, Ontario Cancer Institute, Toronto, Canada. The CEM/VLB 1000 cell line was maintained as a suspension in minimum essential medium supplemented with 10% fetal bovine serum in a humidied atmosphere of 95% air and 5% CO2 while the SK/VLB 1000 cell line was maintained as adherent cells using the identical medium conditions as the CEM cells. The CEM/VLB 1000 cells were seeded at a density of 5×10^4 cells/well in a 96 well microtiter plate while the SK/VLB 1000 cell line was seeded at a density of 2,500 cells/well after trypsinization.

| Compound | pEC50 |
| --- | --- |
| CCOC/C=C/c1ccc(-c2nc(-c3ccc(N(CC)CC)cc3)c(-c3ccc(N(CC)CC)cc3)[nH]2)cc1 [Example 86, 2-[4-(3-ethoxy-trans-1-propen-1-yl)phenyl]-4,5-bis (4-N,N-diethylaminophenyl) imidazole] | 6.59 |
| CCOC/C=C/c1ccc(-c2nc(-c3ccc(N(CC)CC)cc3)c(-c3ccc(NC)cc3)[nH]2)cc1 [Example 87, 2-[4-(3-ethoxy-trans-1-propen-1-yl)phenyl]-4-(4-N,N-diethylaminophenyl)5-(4-N-methylaminophenyl) imidazole] | 7.22 |
| COC/C=C/c1ccc(-c2nc(-c3ccc(N4CCCC4)cc3)c(-c3ccc(N4CCCC4)cc3)[nH]2)cc1 [Example 88, 2-[4-(3-methoxy-trans-1-propen-1-yl)phenyl]-4,5-bis (4-pyrrolidinophenyl) imidazole] | 6.59 |
| CCOC/C=C/c1ccc(-c2nc(-c3ccc(N4CCCC4)cc3)c(-c3ccc(N4CCCC4)cc3)[nH]2)cc1 [Example 89, 2-[4-(3-ethoxy-trans-1-propen-1-yl)phenyl]-4,5-bis (4-pyrrolidinophenyl) imidazole] | 6.62 |
| CCOC/C=C/c1ccc(-c2nc(-c3ccc(N(C)C)cc3)c(-c3ccc(N4CCCC4)cc3)[nH]2)cc1 [Example 90, 2-[4-(3-ethoxy-trans-1-propen-1-yl)phenyl]-4-(4-N-dimethylaminophenyl)-5-(4-pyrrolidinophenyl) imidazole] | 6.92 |
| CCOC/C=C/c1ccc(-c2nc(-c3ccc(NC)cc3)c(-c3ccc(N4CCCC4)cc3)[nH]2)cc1 [Example 91, 2-[4-(3-ethoxy-trans-1-propen-1-yl)phenyl]-4-(4-N-methylaminophenyl)-5(4-pyrrolidinophenyl) imidazole] | 6.96 |
| CCOC/C=C/c1ccc(-c2nc(-c3ccc(N4CCOCC4)cc3)c(-c3ccc(N4CCOCC4)cc3)[nH]2)cc1 [Example 92, 2-[4-(3-ethoxy-trans-1-propen-1-yl)phenyl]-4,5-bis (4-N-morpholinophenyl) imidazole] | 6.66 |
| CCOC/C=C/c1ccc(-c2nc(-c3ccc(N(C)C)cc3)c(-c3ccc(N4CCOCC4)cc3)[nH]2)cc1 [Example 93, 2-[4-(3-ethoxy-trans-1-propen-1-yl)phenyl]-4-(4-N-dimethylaminophenyl)-5-(4-N-morpholinophenyl) imidazole] | 6.82 |
| CCOC/C=C/c1ccc(-c2nc(-c3ccc(NC)cc3)c(-c3ccc(N4CCOCC4)cc3)[nH]2)cc1 [Example 94, 2-[4-(3-ethoxy-trans-1-propen-1-yl)phenyl]-4-(4-N-methylaminophenyl) -5(4-N-morpholinophenyl) imidazole] | 6.60 |
| CCOC/C=C/c1ccc(-c2nc(-c3ccc(NC(C)C)cc3)c(-c3ccc(NC)cc3)[nH]2)cc1 [Example 95, 2-[4-(3-ethoxy-trans-1-propen-1-yl)phenyl]-4-(4-N-methylaminophenyl)-5-(4-N-isopropylaminophenyl) imidazole] | 7.30 |
| CN(C)c1ccc(-c2nc(-c3ccc(/C=C/S(C)(=O)=O)cc3)[nH]c2-c2ccc(N(C)C)cc2)cc1 [Example 96, 2-[4-trans-(2-methanesulfonyl-ethenyl)-phenyl]-4,5-bis (4-N,N-dimethylaminophenyl) imidazole] | 6.14 |
| CN(C)c1ccc(-c2nc(-c3ccc(N4CCOCC4)cc3)[nH]c2-c2ccc(N(C)C)cc2)cc1 [Example 97, 2-(4-N-morpholinophenyl)-4,5-bis (4-N,N-dimnethylaminophenyl) imidazole] | 6.72 |
| CCOC(=O)c1cc(-c2ccc(-c3nc(-c4ccc(N(C)C)cc4)c(-c4ccc(N(C)C)cc4)[nH]3)cc2)no1 [Example 98, 2-[4-(5-ethylcarboxyisoxazol-3-yl)-phenyl]-4,5-bis (4-N,N-dimethylamainophenyl) imidazole] | 6.22 |
| CCN(CC)Cc1ccc(-c2[nH]c(-c3ccc(/C=C/C(=O)OC)cc3)nc2-c2ccc(C)cc2)cc1 [Example 99, 2-[4-trans-(2-methoxycarbonyl-ethenyl)phenyl]-4-(p-tolyl)-5-(4-N,N-diethylaminomethylphenyl) imidazole] | 6.54 |
